target: T1, STAT6 (Homo sapiens, UniProt P42226); test: STAT6 Reporter Luciferase Assay (IL-13 stimulated HaCaT keratinocyte NanoLuc reporter cells); assay type: cell-based; conditions: IL-13 stimulated HaCaT STAT6 NanoLuc reporter cells; read-out: Reporter EC50
T1 construct: stably transfected HaCaT keratinocyte cell line, which expresses NanoLuc luciferase reporter gene under the transcriptional control of the STAT6 responsive promoter; endogenous in cells; host or cells: HaCaT keratinocyte reporter cell line (stably transfected with a NanoLuc reporter)
T1 sequence (P42226 1-847): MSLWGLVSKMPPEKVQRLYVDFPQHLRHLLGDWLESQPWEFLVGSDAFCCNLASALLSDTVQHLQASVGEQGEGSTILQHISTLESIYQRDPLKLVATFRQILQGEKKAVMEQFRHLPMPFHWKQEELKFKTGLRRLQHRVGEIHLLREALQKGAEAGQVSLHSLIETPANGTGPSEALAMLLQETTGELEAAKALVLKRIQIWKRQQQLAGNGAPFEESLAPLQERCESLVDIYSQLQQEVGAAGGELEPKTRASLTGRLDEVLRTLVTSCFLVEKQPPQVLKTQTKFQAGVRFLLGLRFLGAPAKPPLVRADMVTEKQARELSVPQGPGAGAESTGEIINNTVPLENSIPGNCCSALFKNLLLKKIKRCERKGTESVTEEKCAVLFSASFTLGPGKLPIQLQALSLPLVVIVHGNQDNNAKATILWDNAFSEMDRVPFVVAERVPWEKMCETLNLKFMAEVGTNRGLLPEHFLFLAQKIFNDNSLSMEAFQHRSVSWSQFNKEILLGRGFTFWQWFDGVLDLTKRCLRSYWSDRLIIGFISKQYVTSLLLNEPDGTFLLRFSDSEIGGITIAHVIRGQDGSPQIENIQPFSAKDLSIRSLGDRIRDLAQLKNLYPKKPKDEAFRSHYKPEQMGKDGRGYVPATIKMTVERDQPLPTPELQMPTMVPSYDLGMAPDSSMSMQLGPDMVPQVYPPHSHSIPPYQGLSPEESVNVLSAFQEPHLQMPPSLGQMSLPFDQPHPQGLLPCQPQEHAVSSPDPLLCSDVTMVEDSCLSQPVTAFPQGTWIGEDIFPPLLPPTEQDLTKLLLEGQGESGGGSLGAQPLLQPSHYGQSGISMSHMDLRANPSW
Protocol: Pharmacological measurements of STAT6 transcriptional activity through the IL-13-IL-13 receptor/IL-4 receptor pathway were made with a stably transfected HaCaT keratinocyte cell line, which expresses NanoLuc luciferase reporter gene under the transcriptional control of the STAT6 responsive promoter for IL-13Ra2. The readout of the STAT6 activity utilized Promega Nano-Glo Luciferase assay kit.
The reporter cells were cultured in a growth media comprised of DMEM High Glucose, no calcium and no glutamine, 10% heat inactivated fetal bovine serum (HI FBS), 1% 100× Glutamax, and 100 U/mL Penicillin-Streptomycin (units of penicillin in 1 mL of streptomycin). Seven thousand cells were plated in 25 microliter (μL) per well in a 384-well, white bottom, tissue culture plate. Cells were cultured overnight at 37° C. The next day, test compounds (solubilized and serially diluted in DMSO, in an 11 point, 4-fold dilution series in duplicate) were spotted, 60 nanoliters (nL) per well, into a 384 well v-bottom polypropylene plate. Thirty μL per well of 37° C. dosing media (Dulbecco's modified eagle medium (DMEM) High Glucose, no calcium and no glutamine with 2% HI FBS) was added to the compound plate. Growth media was removed from the cell plate, and the cells were washed with DPBS. Twenty μL per well of compounds diluted in dosing media were transferred from the compound plate to the cell plate and the compounds were further diluted with an additional 15 μL of dosing media in the cell plate: the cell plate was incubated for two hours at 37° C. After two hours, STAT6 activity was stimulated with the addition of 5 μL per well of IL-13 (R&D Systems) in dosing media with a final concentration of 0.12 nM IL13. Cells were incubated at 37° C. for 4 hours to allow for reporter gene expression, then all media was removed from the plate. The cell plates were treated with assay buffer and Luciferase substrate from Nano-Glo Luciferase Assay Kit for 15 min and then measured for luminescence on an EnVision 2105 multilabel reader (PerkinElmer).

Row | Compound | EC50
1 | CCC(=O)N1CCN(C(=O)c2ccc(N3CCc4c(c(C(=O)NCc5ccc(NC(=O)N(C)C)cc5)nn4C(C)C)C3)nc2)CC1 [Example 196, N-(4-(3,3-dimethylureido)benzyl)-1-isopropyl-5-(5-(4-propionylpiperazine-1-carbonyl)pyridin-2-yl)-4,5,6,7-tetrahydro-1H-pyrazolo[4,3-c]pyridine-3-carboxamide] | 90 nM
2 | CC(C)n1nc(C(=O)NCc2ccc(NC(=O)N(C)C)cc2)c2c1CCN(c1ccc(C(=O)N3CCC[C@H]3C(N)=O)cn1)C2 [Example 197, (S)-5-(5-(2-carbamoylpyrrolidine-1-carbonyl)pyridin-2-yl)-N-(4-(3,3-dimethylureido)benzyl)-1-isopropyl-4,5,6,7-tetrahydro-1H-pyrazolo[4,3-c]pyridine-3-carboxamide] | 197 nM
3 | CC(=O)N1CCCN(C(=O)c2ccc(N3CCc4c(c(C(=O)NCc5ccc(NC(=O)N(C)C)cc5)nn4C(C)C)C3)nc2)CC1 [Example 200, 5-(5-(4-acetyl-1,4-diazepane-1-carbonyl)pyridin-2-yl)-N-(4-(3,3-dimethylureido)benzyl)-1-isopropyl-4,5,6,7-tetrahydro-1H-pyrazolo[4,3-c]pyridine-3-carboxamide] | 363 nM
4 | COc1nc(N2CCc3c(c(C(=O)NCc4ccc(NC(=O)N(C)C)cc4)nn3C(C)C)C2)ccc1[C@]1(C)CNC(=O)C1 [Example 202, (R)-N-(4-(3,3-dimethylureido)benzyl)-1-isopropyl-5-(6-methoxy-5-(3-methyl-5-oxopyrrolidin-3-yl)pyridin-2-yl)-4,5,6,7-tetrahydro-1H-pyrazolo[4,3-c]pyridine-3-carboxamide] | 8080 nM
5 | CC(C)n1nc(C(=O)NCc2ccc(NC(=O)N(C)C)cc2)c2c1CCN(c1ccc(C(=O)N3CCOCC3)cn1)C2 [Example 206, N-(4-(3,3-dimethylureido)benzyl)-1-isopropyl-5-(5-(morpholine-4-carbonyl)pyridin-2-yl)-4,5,6,7-tetrahydro-1H-pyrazolo[4,3-c]pyridine-3-carboxamide] | 97 nM
6 | CC(C)n1nc(C(=O)NCc2ccc(NC(=O)N(C)C)cc2)c2c1CCN(c1ccc(C(=O)N3C[C@@H](C)O[C@@H](C)C3)cn1)C2 [Example 207, 5-(5-((2R,6S)-2,6-dimethylmorpholine-4-carbonyl)pyridin-2-yl)-N-(4-(3,3-dimethylureido)benzyl)-1-isopropyl-4,5,6,7-tetrahydro-1H-pyrazolo[4,3-c]pyridine-3-carboxamide] | 272 nM

Continued, values first:

Row | EC50 | Compound
7 | 125 nM | COC1CCN(C(=O)c2ccc(N3CCc4c(c(C(=O)NCc5ccc(NC(=O)N(C)C)cc5)nn4C(C)C)C3)nc2)CC1 [Example 199, N-(4-(3,3-dimethylureido)benzyl)-1-isopropyl-5-(5-(4-methoxypiperidine-1-carbonyl)pyridin-2-yl)-4,5,6,7-tetrahydro-1H-pyrazolo[4,3-c]pyridine-3-carboxamide]
8 | 343 nM | CCO[C@H]1CCN(C(=O)c2ccc(N3CCc4c(c(C(=O)NCc5ccc(NC(=O)N(C)C)cc5)nn4C(C)C)C3)nc2)C1 [Example 201, (S)-N-(4-(3,3-dimethylureido)benzyl)-5-(5-(3-ethoxypyrrolidine-1-carbonyl)pyridin-2-yl)-1-isopropyl-4,5,6,7-tetrahydro-1H-pyrazolo[4,3-c]pyridine-3-carboxamide]
9 | 692 nM | COC[C@@H]1CCCN1C(=O)c1ccc(N2CCc3c(c(C(=O)NCc4ccc(NC(=O)N(C)C)cc4)nn3C(C)C)C2)nc1 [Example 209, (S)-N-(4-(3,3-dimethylureido)benzyl)-1-isopropyl-5-(5-(2-(methoxymethyl)pyrrolidine-1-carbonyl)pyridin-2-yl)-4,5,6,7-tetrahydro-1H-pyrazolo[4,3-c]pyridine-3-carboxamide]
10 | 1060 nM | CC(C)n1nc(C(=O)NCc2ccc(NC(=O)N(C)C)cc2)c2c1CCN(c1ccc(C(=O)N3CC(C#N)C3)cn1)C2 [Example 210, 5-(5-(3-cyanoazetidine-1-carbonyl)pyridin-2-yl)-N-(4-(3,3-dimethylureido)benzyl)-1-isopropyl-4,5,6,7-tetrahydro-1H-pyrazolo[4,3-c]pyridine-3-carboxamide]
